In publication PMC5622171 (Nature Communications, 2017):

How the values were obtained:
Assay in all cases: KINOMEscan kinase profiling
Type in all cases: binding
[1] = molecular target: T1, AKT1 (Homo sapiens, UniProt P31749); conditions: read-out: %Inhibition by 10 μM SPA70
T1 construct: purchased DiscoverX (Ambit Biosciences) KINOMEscan
Method: (§1) Kinase inhibition profiling assays. The kinase inhibition profiling assay (KINOMEscan) was performed by Ambit Biosciences, now part of DiscoveryX (Fremont, CA) in accordance with the […]
(§2) published protocol20, 21. […] If the inhibition of a kinase was greater […]
(§3) dilutions) starting from 30 µM.

[2] = molecular target: T2, ALK (Homo sapiens, UniProt Q9UM73); conditions: read-out: %Inhibition by 10 μM SPA70
T2 construct: purchased DiscoverX (Ambit Biosciences) KINOMEscan
Method: as §1, §2, §3

[3] = molecular target: T3, AMPK-alpha2 (Homo sapiens, UniProt P54646); conditions: read-out: %Inhibition by 10 μM SPA70
T3 construct: purchased DiscoverX (Ambit Biosciences) KINOMEscan
Method: as §1, §2, §3

[4] = molecular target: T4, BIKE (Homo sapiens, UniProt Q9NSY1); conditions: read-out: %Inhibition by 10 μM SPA70
T4 construct: purchased DiscoverX (Ambit Biosciences) KINOMEscan
Method: as §1, §2, §3

[5] = molecular target: T5, CAMK1D (Homo sapiens, UniProt Q8IU85); conditions: read-out: %Inhibition by 10 μM SPA70
T5 construct: purchased DiscoverX (Ambit Biosciences) KINOMEscan
Method: as §1, §2, §3

[6] = molecular target: T6, CAMK2A (Homo sapiens, UniProt Q9UQM7); conditions: read-out: %Inhibition by 10 μM SPA70
T6 construct: purchased DiscoverX (Ambit Biosciences) KINOMEscan
Method: as §1, §2, §3

[7] = molecular target: T7, CAMK2G (Homo sapiens, UniProt Q13555); conditions: read-out: %Inhibition by 10 μM SPA70
T7 construct: purchased DiscoverX (Ambit Biosciences) KINOMEscan
Method: as §1, §2, §3

[8] = molecular target: T8, CDC2L1 (Homo sapiens, UniProt P21127); conditions: read-out: %Inhibition by 10 μM SPA70
T8 construct: purchased DiscoverX (Ambit Biosciences) KINOMEscan
Method: as §1, §2, §3

[9] = molecular target: T9, CDK11 (Homo sapiens, UniProt Q9BWU1)
T9 construct: purchased DiscoverX (Ambit Biosciences) KINOMEscan
Method: as §1, §2, §3

[10] = molecular target: T10, CDK8 (Homo sapiens, UniProt P49336)
T10 construct: purchased DiscoverX (Ambit Biosciences) KINOMEscan
Method: as §1, §2, §3

[11] = molecular target: T11, DAPK2 (Homo sapiens, UniProt Q9UIK4); conditions: read-out: %Inhibition by 10 μM SPA70
T11 construct: purchased DiscoverX (Ambit Biosciences) KINOMEscan
Method: as §1, §2, §3

[12] = molecular target: T12, ERBB3 (Homo sapiens, UniProt P21860); conditions: read-out: %Inhibition by 10 μM SPA70
T12 construct: purchased DiscoverX (Ambit Biosciences) KINOMEscan
Method: as §1, §2, §3

[13] = molecular target: T13, ERBB4 (Homo sapiens, UniProt Q15303); conditions: read-out: %Inhibition by 10 μM SPA70
T13 construct: purchased DiscoverX (Ambit Biosciences) KINOMEscan
Method: as §1, §2, §3

[14] = molecular target: T14, FGFR3 (Homo sapiens, UniProt P22607); conditions: read-out: %Inhibition by 10 μM SPA70
T14 construct: purchased DiscoverX (Ambit Biosciences) KINOMEscan
Method: as §1, §2, §3

[15] = molecular target: T15, FRK (Homo sapiens, UniProt P42685); conditions: read-out: %Inhibition by 10 μM SPA70
T15 construct: purchased DiscoverX (Ambit Biosciences) KINOMEscan
Method: as §1, §2, §3

[16] = molecular target: T16, INSRR (Homo sapiens, UniProt P14616); conditions: read-out: %Inhibition by 10 μM SPA70
T16 construct: purchased DiscoverX (Ambit Biosciences) KINOMEscan
Method: as §1, §2, §3

[17] = molecular target: T17, ITK (Homo sapiens, UniProt Q08881)
T17 construct: purchased DiscoverX (Ambit Biosciences) KINOMEscan
Method: as §1, §2, §3

[18] = molecular target: T18, JAK1(JH1domain-catalytic) (Homo sapiens, UniProt P23458)
T18 construct: JAK1(JH1domain-catalytic); purchased DiscoverX (Ambit Biosciences) KINOMEscan
Method: as §1, §2, §3

[19] = molecular target: T19, JAK2(JH1domain-catalytic) (Homo sapiens, UniProt O60674)
T19 construct: JAK2(JH1domain-catalytic); purchased DiscoverX (Ambit Biosciences) KINOMEscan
Method: as §1, §2, §3

[20] = molecular target: T20, LCK (Homo sapiens, UniProt P06239); conditions: read-out: %Inhibition by 10 μM SPA70
T20 construct: purchased DiscoverX (Ambit Biosciences) KINOMEscan
Method: as §1, §2, §3

[21] = molecular target: T21, LIMK2 (Homo sapiens, UniProt P53671); conditions: read-out: %Inhibition by 10 μM SPA70
T21 construct: purchased DiscoverX (Ambit Biosciences) KINOMEscan
Method: as §1, §2, §3

[22] = molecular target: T22, MERTK (Homo sapiens, UniProt Q12866); conditions: read-out: %Inhibition by 10 μM SPA70
T22 construct: purchased DiscoverX (Ambit Biosciences) KINOMEscan
Method: as §1, §2, §3

[23] = molecular target: T23, MUSK (Homo sapiens, UniProt O15146); conditions: read-out: %Inhibition by 10 μM SPA70
T23 construct: purchased DiscoverX (Ambit Biosciences) KINOMEscan
Method: as §1, §2, §3

[24] = molecular target: T24, MYO3A (Homo sapiens, UniProt Q8NEV4); conditions: read-out: %Inhibition by 10 μM SPA70
T24 construct: purchased DiscoverX (Ambit Biosciences) KINOMEscan
Method: as §1, §2, §3

[25] = molecular target: T25, PAK1 (Homo sapiens, UniProt Q13153); conditions: read-out: %Inhibition by 10 μM SPA70
T25 construct: purchased DiscoverX (Ambit Biosciences) KINOMEscan
Method: as §1, §2, §3

[26] = molecular target: T26, PDGFRB (Homo sapiens, UniProt P09619); conditions: read-out: %Inhibition by 10 μM SPA70
T26 construct: purchased DiscoverX (Ambit Biosciences) KINOMEscan
Method: as §1, §2, §3

[27] = molecular target: T27, PIK3CB (Homo sapiens, UniProt P42338); conditions: read-out: %Inhibition by 10 μM SPA70
T27 construct: purchased DiscoverX (Ambit Biosciences) KINOMEscan
Method: as §1, §2, §3

[28] = molecular target: T28, PIK3CG (Homo sapiens, UniProt P48736); conditions: read-out: %Inhibition by 10 μM SPA70
T28 construct: purchased DiscoverX (Ambit Biosciences) KINOMEscan
Method: as §1, §2, §3

[29] = molecular target: T29, PIM3 (Homo sapiens, UniProt Q86V86); conditions: read-out: %Inhibition by 10 μM SPA70
T29 construct: purchased DiscoverX (Ambit Biosciences) KINOMEscan
Method: as §1, §2, §3

[30] = molecular target: T30, PIP5K2C (Homo sapiens, UniProt Q8TBX8); conditions: read-out: %Inhibition by 10 μM SPA70
T30 construct: purchased DiscoverX (Ambit Biosciences) KINOMEscan
Method: as §1, §2, §3

[31] = molecular target: T31, PLK3 (Homo sapiens, UniProt Q9H4B4); conditions: read-out: %Inhibition by 10 μM SPA70
T31 construct: purchased DiscoverX (Ambit Biosciences) KINOMEscan
Method: as §1, §2, §3

[32] = molecular target: T32, PRKD3 (Homo sapiens, UniProt O94806); conditions: read-out: %Inhibition by 10 μM SPA70
T32 construct: purchased DiscoverX (Ambit Biosciences) KINOMEscan
Method: as §1, §2, §3

[33] = molecular target: T33, PRKG2 (Homo sapiens, UniProt Q13237); conditions: read-out: %Inhibition by 10 μM SPA70
T33 construct: purchased DiscoverX (Ambit Biosciences) KINOMEscan
Method: as §1, §2, §3

[34] = molecular target: T34, PYK2 (Homo sapiens, UniProt Q14289); conditions: read-out: %Inhibition by 10 μM SPA70
T34 construct: purchased DiscoverX (Ambit Biosciences) KINOMEscan
Method: as §1, §2, §3

[35] = molecular target: T35, QSK (Homo sapiens, UniProt Q9Y2K2)
T35 construct: purchased DiscoverX (Ambit Biosciences) KINOMEscan
Method: as §1, §2, §3

[36] = molecular target: T36, RPS6KA4(Kin.Dom.2-C-terminal) (Homo sapiens, UniProt O75676); conditions: read-out: %Inhibition by 10 μM SPA70
T36 construct: RPS6KA4(Kin.Dom.2-C-terminal); purchased DiscoverX (Ambit Biosciences) KINOMEscan
Method: as §1, §2, §3

[37] = molecular target: T37, STK33 (Homo sapiens, UniProt Q9BYT3); conditions: read-out: %Inhibition by 10 μM SPA70
T37 construct: purchased DiscoverX (Ambit Biosciences) KINOMEscan
Method: as §1, §2, §3

[38] = molecular target: T38, STK35 (Homo sapiens, UniProt Q8TDR2); conditions: read-out: %Inhibition by 10 μM SPA70
T38 construct: purchased DiscoverX (Ambit Biosciences) KINOMEscan
Method: as §1, §2, §3

[39] = molecular target: T39, TAOK1 (Homo sapiens, UniProt Q7L7X3); conditions: read-out: %Inhibition by 10 μM SPA70
T39 construct: purchased DiscoverX (Ambit Biosciences) KINOMEscan
Method: as §1, §2, §3

[40] = molecular target: T40, TBK1 (Homo sapiens, UniProt Q9UHD2); conditions: read-out: %Inhibition by 10 μM SPA70
T40 construct: purchased DiscoverX (Ambit Biosciences) KINOMEscan
Method: as §1, §2, §3

[41] = molecular target: T41, YANK2 (Homo sapiens, UniProt Q9NY57); conditions: read-out: %Inhibition by 10 μM SPA70
T41 construct: purchased DiscoverX (Ambit Biosciences) KINOMEscan
Method: as §1, §2, §3

T31 sequence (Q9H4B4 whole entry): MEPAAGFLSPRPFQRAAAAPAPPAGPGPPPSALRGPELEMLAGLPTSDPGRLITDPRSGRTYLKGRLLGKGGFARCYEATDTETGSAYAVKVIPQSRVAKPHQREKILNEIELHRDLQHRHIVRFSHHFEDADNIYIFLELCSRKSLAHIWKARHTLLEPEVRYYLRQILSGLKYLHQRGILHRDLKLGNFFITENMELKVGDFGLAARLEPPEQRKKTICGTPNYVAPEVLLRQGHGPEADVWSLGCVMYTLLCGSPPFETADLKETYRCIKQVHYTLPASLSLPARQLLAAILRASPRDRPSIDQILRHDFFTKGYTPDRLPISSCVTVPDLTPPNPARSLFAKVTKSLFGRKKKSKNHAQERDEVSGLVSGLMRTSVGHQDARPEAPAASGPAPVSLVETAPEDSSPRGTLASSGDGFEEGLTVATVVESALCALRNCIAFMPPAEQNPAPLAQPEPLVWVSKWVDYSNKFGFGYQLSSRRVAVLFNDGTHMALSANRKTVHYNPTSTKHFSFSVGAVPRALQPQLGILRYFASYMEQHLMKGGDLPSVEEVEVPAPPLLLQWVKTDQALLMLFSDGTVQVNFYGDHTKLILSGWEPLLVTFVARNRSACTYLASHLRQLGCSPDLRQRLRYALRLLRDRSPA
T2 sequence (Q9UM73 19-1620): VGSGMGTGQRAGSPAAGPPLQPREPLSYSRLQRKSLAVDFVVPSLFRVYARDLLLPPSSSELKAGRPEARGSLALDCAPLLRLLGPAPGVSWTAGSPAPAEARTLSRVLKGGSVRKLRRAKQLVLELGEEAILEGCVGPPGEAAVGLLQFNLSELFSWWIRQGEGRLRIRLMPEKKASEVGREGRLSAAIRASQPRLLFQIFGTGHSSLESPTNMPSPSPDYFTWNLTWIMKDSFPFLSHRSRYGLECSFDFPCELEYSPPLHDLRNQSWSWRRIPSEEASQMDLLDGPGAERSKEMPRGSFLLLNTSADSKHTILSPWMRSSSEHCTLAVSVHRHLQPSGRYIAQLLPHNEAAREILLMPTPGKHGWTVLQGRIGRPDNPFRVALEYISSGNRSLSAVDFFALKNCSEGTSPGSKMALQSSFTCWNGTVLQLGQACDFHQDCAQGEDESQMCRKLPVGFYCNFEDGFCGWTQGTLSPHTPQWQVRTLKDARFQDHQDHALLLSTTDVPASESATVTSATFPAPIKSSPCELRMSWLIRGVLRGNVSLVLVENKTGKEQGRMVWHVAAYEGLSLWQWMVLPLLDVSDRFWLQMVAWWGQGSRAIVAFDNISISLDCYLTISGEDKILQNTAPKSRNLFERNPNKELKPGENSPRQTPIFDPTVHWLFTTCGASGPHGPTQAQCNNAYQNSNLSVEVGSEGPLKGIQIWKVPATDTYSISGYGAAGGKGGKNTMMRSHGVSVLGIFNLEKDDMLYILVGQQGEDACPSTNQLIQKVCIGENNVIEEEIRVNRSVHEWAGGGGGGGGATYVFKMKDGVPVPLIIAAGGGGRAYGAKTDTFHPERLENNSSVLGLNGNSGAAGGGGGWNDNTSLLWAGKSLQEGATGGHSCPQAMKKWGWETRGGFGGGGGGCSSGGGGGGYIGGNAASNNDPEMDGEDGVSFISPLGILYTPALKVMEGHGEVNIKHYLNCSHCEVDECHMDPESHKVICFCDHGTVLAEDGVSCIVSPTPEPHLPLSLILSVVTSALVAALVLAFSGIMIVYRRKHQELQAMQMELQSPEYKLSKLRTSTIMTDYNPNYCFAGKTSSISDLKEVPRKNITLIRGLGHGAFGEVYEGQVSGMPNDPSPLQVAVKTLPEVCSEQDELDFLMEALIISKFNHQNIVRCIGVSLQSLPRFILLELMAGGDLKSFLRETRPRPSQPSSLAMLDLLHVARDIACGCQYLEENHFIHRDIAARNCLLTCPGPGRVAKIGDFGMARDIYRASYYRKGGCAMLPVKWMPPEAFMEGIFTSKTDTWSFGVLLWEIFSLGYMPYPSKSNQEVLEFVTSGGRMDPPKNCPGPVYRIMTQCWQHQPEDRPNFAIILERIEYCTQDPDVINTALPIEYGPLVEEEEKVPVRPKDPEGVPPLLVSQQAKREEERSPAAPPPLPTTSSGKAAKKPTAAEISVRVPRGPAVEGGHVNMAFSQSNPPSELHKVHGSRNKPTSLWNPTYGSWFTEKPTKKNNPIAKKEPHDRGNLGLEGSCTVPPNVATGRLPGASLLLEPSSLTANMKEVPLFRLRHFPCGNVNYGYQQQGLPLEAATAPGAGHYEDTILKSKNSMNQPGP
T13 sequence (Q15303 26-1308): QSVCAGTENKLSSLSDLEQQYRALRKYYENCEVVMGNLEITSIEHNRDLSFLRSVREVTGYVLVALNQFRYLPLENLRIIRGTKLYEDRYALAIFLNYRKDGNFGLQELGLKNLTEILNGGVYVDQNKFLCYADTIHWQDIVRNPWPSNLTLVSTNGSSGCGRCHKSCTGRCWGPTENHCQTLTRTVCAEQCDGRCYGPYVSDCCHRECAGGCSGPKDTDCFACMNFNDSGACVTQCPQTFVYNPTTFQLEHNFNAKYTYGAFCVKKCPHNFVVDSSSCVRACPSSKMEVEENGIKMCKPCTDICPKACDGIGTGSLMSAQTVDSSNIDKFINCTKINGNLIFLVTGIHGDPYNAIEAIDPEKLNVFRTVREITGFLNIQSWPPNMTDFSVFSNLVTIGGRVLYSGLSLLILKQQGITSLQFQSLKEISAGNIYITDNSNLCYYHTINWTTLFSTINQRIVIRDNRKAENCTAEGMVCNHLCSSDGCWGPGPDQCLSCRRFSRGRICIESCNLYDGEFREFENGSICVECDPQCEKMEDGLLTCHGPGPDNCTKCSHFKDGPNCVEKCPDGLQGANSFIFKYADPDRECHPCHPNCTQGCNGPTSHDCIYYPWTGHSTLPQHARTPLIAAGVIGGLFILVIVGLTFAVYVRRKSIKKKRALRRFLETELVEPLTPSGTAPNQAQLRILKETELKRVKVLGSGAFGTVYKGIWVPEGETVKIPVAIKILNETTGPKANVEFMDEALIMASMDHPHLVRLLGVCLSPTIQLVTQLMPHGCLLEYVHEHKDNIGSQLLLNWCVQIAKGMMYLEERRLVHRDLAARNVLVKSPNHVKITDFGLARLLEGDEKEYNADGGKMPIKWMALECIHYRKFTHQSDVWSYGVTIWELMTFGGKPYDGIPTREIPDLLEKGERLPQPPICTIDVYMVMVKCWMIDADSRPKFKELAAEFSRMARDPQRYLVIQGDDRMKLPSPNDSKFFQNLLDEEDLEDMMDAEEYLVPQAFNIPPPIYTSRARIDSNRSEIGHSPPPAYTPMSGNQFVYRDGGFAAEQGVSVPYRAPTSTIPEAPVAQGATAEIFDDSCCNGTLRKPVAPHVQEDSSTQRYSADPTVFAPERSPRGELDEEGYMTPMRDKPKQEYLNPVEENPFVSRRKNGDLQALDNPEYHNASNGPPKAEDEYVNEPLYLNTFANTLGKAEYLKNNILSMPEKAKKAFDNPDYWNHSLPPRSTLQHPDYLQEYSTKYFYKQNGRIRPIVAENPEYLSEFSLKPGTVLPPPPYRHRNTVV
T14 sequence (P22607 23-806): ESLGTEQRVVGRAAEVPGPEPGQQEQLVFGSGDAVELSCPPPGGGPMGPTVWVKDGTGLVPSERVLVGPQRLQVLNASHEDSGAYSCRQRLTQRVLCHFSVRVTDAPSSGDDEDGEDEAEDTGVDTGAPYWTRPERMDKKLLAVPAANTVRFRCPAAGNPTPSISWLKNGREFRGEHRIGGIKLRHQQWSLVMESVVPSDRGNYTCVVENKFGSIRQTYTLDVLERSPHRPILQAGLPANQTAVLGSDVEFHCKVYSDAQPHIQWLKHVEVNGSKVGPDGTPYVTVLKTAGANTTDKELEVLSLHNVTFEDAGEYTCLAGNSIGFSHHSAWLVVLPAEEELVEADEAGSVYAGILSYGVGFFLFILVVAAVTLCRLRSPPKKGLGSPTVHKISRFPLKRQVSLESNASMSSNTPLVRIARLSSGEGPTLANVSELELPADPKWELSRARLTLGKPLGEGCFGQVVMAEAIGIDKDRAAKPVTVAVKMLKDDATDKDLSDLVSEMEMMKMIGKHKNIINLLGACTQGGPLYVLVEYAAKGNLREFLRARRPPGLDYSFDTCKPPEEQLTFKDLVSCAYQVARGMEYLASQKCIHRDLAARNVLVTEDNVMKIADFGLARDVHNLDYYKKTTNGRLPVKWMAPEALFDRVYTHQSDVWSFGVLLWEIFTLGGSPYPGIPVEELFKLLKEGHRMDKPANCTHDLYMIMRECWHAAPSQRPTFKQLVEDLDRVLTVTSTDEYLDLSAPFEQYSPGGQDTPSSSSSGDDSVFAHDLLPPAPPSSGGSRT
T41 sequence (Q9NY57 whole entry): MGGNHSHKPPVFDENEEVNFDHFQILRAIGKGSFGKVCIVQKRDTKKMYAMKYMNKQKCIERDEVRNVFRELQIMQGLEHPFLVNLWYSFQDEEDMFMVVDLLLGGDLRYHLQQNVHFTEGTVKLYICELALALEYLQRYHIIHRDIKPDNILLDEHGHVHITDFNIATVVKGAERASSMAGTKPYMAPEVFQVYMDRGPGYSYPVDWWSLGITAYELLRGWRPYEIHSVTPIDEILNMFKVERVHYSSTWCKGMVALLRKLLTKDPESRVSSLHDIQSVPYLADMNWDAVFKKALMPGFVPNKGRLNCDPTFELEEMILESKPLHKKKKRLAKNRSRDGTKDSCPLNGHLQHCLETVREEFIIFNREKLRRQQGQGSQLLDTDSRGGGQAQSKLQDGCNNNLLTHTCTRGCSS
T19 sequence (O60674 849-1132 limits assumed): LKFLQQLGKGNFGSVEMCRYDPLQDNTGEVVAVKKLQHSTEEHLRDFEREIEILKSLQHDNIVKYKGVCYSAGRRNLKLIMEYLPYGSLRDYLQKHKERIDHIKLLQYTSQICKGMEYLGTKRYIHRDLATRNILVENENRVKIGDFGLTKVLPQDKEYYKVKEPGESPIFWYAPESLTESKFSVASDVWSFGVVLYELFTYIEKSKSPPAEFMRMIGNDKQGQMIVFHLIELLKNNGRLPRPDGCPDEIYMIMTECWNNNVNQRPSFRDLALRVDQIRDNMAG

COc1ccc(OC)c(-n2nnc(S(=O)(=O)c3ccc(C(C)(C)C)cc3)c2C)c1 [SPA70]
inhibition at 10 µM [1]: 0%
inhibition at 10 µM [2]: 0%
inhibition at 10 µM [3]: 9%
inhibition at 10 µM [4]: 35%
inhibition at 10 µM [5]: 20%
inhibition at 10 µM [6]: 0%
inhibition at 10 µM [7]: 1%
inhibition at 10 µM [8]: 0%
%Inhibition by 10 μM SPA70 [9]: 0%
%Inhibition by 10 μM SPA70 [10]: 2%
inhibition at 10 µM [11]: 0%
inhibition at 10 µM [12]: 42%
inhibition at 10 µM [13]: 2%
inhibition at 10 µM [14]: 0%
inhibition at 10 µM [15]: 0%
inhibition at 10 µM [16]: 0%
%Inhibition by 10 μM SPA70 [17]: 0%
%Inhibition by 10 μM SPA70 [18]: 19%
%Inhibition by 10 μM SPA70 [19]: 33%
inhibition at 10 µM [20]: 2%
inhibition at 10 µM [21]: 2%
inhibition at 10 µM [22]: 0%
inhibition at 10 µM [23]: 0%
inhibition at 10 µM [24]: 0%
inhibition at 10 µM [25]: 0%
inhibition at 10 µM [26]: 46%
inhibition at 10 µM [27]: 8%
inhibition at 10 µM [28]: 9%
inhibition at 10 µM [29]: 0%
inhibition at 10 µM [30]: 10%
inhibition at 10 µM [31]: 33%
inhibition at 10 µM [32]: 0%
inhibition at 10 µM [33]: 12%
inhibition at 10 µM [34]: 2%
%Inhibition by 10 μM SPA70 [35]: 43%
inhibition at 10 µM [36]: 0%
inhibition at 10 µM [37]: 0%
inhibition at 10 µM [38]: 0%
inhibition at 10 µM [39]: 15%
inhibition at 10 µM [40]: 0%
inhibition at 10 µM [41]: 0%
